Source: PMC4446620, “Bioactive Metabolites from Mangrove Endophytic Fungus Aspergillus sp. 16-5B” (Marine Drugs, 2015)
Entries after “also recorded” stand apart in the source; their conditions may differ.

Tests used:
α-glucosidase = α-glucosidase (Saccharomyces cerevisiae, UniProt P53341); assay: Assay for α-glucosidase inhibitory activity; assay type: biochemical; conditions: for inhibitory effect against α-glucosidase compared with acarbose, in words: versus the clinical α-glucosidase inhibitor acarbose
Sequence of α-glucosidase (P53341 whole entry): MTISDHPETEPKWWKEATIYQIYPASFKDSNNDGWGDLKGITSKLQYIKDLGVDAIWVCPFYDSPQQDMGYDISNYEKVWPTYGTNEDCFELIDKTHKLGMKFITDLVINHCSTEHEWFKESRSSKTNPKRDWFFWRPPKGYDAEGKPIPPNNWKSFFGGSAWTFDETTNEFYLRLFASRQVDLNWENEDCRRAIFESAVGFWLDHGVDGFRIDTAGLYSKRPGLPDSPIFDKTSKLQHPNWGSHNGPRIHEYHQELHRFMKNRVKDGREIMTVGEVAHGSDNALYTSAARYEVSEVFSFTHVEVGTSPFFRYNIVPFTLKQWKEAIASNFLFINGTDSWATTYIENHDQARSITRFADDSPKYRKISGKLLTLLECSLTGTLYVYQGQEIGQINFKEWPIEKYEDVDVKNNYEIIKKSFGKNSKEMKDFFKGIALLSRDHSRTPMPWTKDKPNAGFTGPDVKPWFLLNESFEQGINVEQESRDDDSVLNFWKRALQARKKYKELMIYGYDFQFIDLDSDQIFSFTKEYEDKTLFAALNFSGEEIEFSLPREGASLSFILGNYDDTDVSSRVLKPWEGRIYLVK
Experimental: All of the tests for α-glucosidase inhibitory activity were according to a previously described method. […] The reaction was monitored spectrophotometrically by measuring the absorbance at 400 nm for 1-min intervals. […] The IC50 values of the compounds were calculated by nonlinear regression analysis and expressed as the mean ± SD of two distinct experiments. Kinetic parameters were determined using the Lineweaver-Burk double-reciprocal plot method at increasing concentrations of substrates and inhibitors.

| melting point [°C] | α-glucosidase inhibitory activity, in words (α-glucosidase) | inhibitory effect against α-glucosidase compared with acarbose, in words (α-glucosidase) | Structure (SMILES) | inhibition type of α-glucosidase (kinetic analysis) (α-glucosidase; Lineweaver-Burk plot method) |
| --- | --- | --- | --- | --- |
| 134.2 to 134.8 |  |  | COC1(C)OC(=O)c2c(cc(O)c(C)c2O)C1=O (stereo not shown) [Compound 3] |  |
| 201.2 to 201.9 |  |  | CCC[C@@]1(O)OC(=O)c2c1cc(O)c(O)c2C [Compound 4, (R)-3-demethylpurpurester A] |  |
|  | moderate inhibitory activities | more potent inhibitory effects | Cc1c(O)cc2c(c1O)C(=O)O[C@@H]2[C@H](C)O [Compound 6, pestaphthalides A] |  |
| 121.1 to 121.6 |  | more potent inhibitory effects | CC=Cc1cc2c(o1)C(=O)C(C)(OC(=O)c1c(C)cc(O)cc1O)C(O)C2 (stereo not shown) [Compound 1, aspergifuranone] | noncompetitive inhibitor; also recorded: noncompetitive inhibition |
| 174.4 to 174.9 | moderate inhibitory activities | more potent inhibitory effects | COC1(C)OC(=O)c2c(cc(O)c(C)c2O)C1O (stereo not shown) [Compound 2] |  |
